Key:
Assay type in all cases: in vivo
[1] = system: non-transgenic soybean line Jack; experiment: Field efficacy against glufosinate, non-transgenic soybean line Jack; conditions: 900 g ai/ha glufosinate at V2/V3 stage and second treatment at V5-V6 stage, 8 locations in the United States
Experimental: (§1) SYHT0H2 soybean plants were tested for efficacy against glufosinate in 8 locations in the United States. The non-transgenic soybean line Jack was used as a control. Soybean plants, both SYHT0H2 and Jack, were treated with 900 g ai/ha of glufosinate at the V2/V3 stage and then a second treatment at the V5-V6 stage. They were then assessed for percentage of leaves showing injury at 4-8 days after treatment (DAT), 13-20 DAT, and 26-35 DAT.

SYHT0H2 soybean plants = experiment: Field efficacy against glufosinate, SYHT0H2 soybean plants; conditions: 900 g ai/ha glufosinate at V2/V3 stage and second treatment at V5-V6 stage, 8 locations in the United States
Experimental: as §1

[2] = system: Event SYHT0H2 soybean plants; experiment: Herbicide tolerance performance of transgenic soybean transformants; conditions: event SYHT0H2 from a population of about 90 transformants
Excerpt: After plants became established in the soil and new growth appeared (˜1-2 weeks), plants were sampled and tested for the presence of desired transgene by TAQMAN® analysis using appropriate probes for the HPPD genes, or promoters (for example prCMP). Positive plants were transplanted into 4″ square pots containing Fafard #3 soil. Sierra 17-6-12 slow release fertilizer was incorporated into the soil at the recommended rate. The plants were then relocated into a standard greenhouse to acclimatize (˜1 week). The environmental conditions were: 27° C. day; 21° C. night; 14 hour photoperiod (with supplemental light); ambient humidity. After acclimatizing (˜1 week), the plants were sampled and tested in detail for the presence and copy number of inserted transgenes. Transgenic soybean plants were grown to maturity for T1 seed production. T1 plants were grown up, and after TAQMAN® analysis, homozygous plants were grown for seed production. Transgenic seeds and progeny plants were used to further evaluate their herbicide tolerance performance and molecular characteristics.

[3] = system: Event SYHT0H2 soybean plants; experiment: Field efficacy against mesotrione, event SYHT0H2 soybean plants; conditions: 210 g ai/ha mesotrione at V2/V3 stage, 5 locations in the United States
Experimental: (§2) Event SYHT0H2 soybean plants were tested for efficacy against mesotrione in 5 locations in the United States. The non-transgenic soybean line Jack was used as a control. Soybean plants, both SYHT0H2 and Jack, were treated with 210 g ai/ha of mesotrione at the V2/V3 stage and then assessed for percentage of leaves showing injury at 4-7 days after treatment (DAT), 13-17 DAT, and 25-33 DAT.

[4] = system: non-transgenic soybean line Jack; experiment: Field efficacy against mesotrione, non-transgenic soybean line Jack; conditions: 210 g ai/ha mesotrione at V2/V3 stage, 5 locations in the United States
Experimental: as §2

Row | Molecule | % Injury (percentage of leaves showing injury) ([1]; 4-8 DAT) [%] | % Injury (percentage of leaves showing injury) ([1]; 13-20 DAT) [%] | % Injury (percentage of leaves showing injury) ([1]; 26-35 DAT) [%] | % Injury (percentage of leaves showing injury) (SYHT0H2 soybean plants; 4-8 DAT) [%] | % Injury (percentage of leaves showing injury) (SYHT0H2 soybean plants; 13-20 DAT) [%] | % Injury (percentage of leaves showing injury) (SYHT0H2 soybean plants; 26-35 DAT) [%] | herbicide tolerance of event SYHT0H2 [2] | % Injury (percentage of leaves showing injury) ([3]; 4-7 DAT) [%] | % Injury (percentage of leaves showing injury) ([3]; 13-17 DAT) [%] | % Injury (percentage of leaves showing injury) ([3]; 25-33 DAT) [%] | % Injury (percentage of leaves showing injury) ([4]; 4-7 DAT) [%] | % Injury (percentage of leaves showing injury) ([4]; 13-17 DAT) [%] | % Injury (percentage of leaves showing injury) ([4]; 25-33 DAT) [%]
1 | 2-amino-4-methylphosphinobutyric acid [glufosinate] | 100 | 100 | 100 | 9 | 5 | 0 |  |  |  |  |  |  | 
2 | CS(=O)(=O)c1ccc(C(=O)C2C(=O)CCCC2=O)c([N+](=O)[O-])c1 [mesotrione] |  |  |  |  |  |  | high level of mesotrione tolerance | 13.2 | 4.7 | 0 | 46.5 | 81 | 62.4

— patent US10184134B2, “Soybean event SYHT0H2 and compositions and methods for detection thereof” (Syngenta Participations AG, priority 2010, dated 2019)
